“Also recorded” adds a separate entry of the source. Read-outs that look alike come from different tables or passages of the source.
How the values were obtained:
[1] = tested on: human tumor 60-cell line panel; details: Data from NCI/DTP screening: October 2009, 48 h incubation; cited from earlier work
[2] = tested on: A2780/cis ovarian (cisplatin-resistant); assay: MTT growth inhibition assay, A2780/cis; type: cell-based, human; details: 96 h
Description: (§1) Tumor cell growth inhibition was assessed using the MTT assay.^13 2×10^3 cells were inoculated into a 96-well plate and incubated overnight at 37° C. in a humidified atmosphere containing 5% CO2. Complexes were solubilised in DMSO as above, and then diluted in complete cell culture medium to give a broad range of concentrations. Cisplatin was included in the screen as a comparator. Medium was removed from each well and replaced with complex or control solutions, and the plates then incubated for a further 96 hours. After 96 h culture medium was removed and 200 μL of 0.5 mg mL^−1 MTT solution (Sigma) in complete medium added to each well. Following further 4 h incubation, the solution was removed from each well and 150 μL of DMSO (Sigma) added to solubilise the formazan crystals resulting from MTT conversion. Absorbance values for the resulting solutions were read at 550 nm on a microplate reader and cell survival calculated as the absorbance of treated cells divided by the control. Results were expressed in terms of IC50 values (i.e. concentration of compound required to kill 50% of cells) and all experiments were performed in triplicate.
(§2) The following human cancer cell lines were cultured in RPMI 1640 cell culture medium supplemented with 1 mM sodium pyruvate, 2 mM L-glutamine and 10% fetal bovine serum (all from Sigma): A549 non-small cell lung, HCT-116 colon, MCF-7 breast, PC-3 prostate (all from LGC Promochem, Teddington, UK), A2780/cis ovarian (cisplatin-resistant) and RT-112 bladder (both from ECACC, Salisbury, UK).

[3] = tested on: HCT-116 colon; assay: MTT growth inhibition assay, HCT-116; type: cell-based, human; details: 96 h
Description: as §1, §2

[4] = tested on: human ovarian A2780 cancer cells; assay: SRB growth inhibition assay, A2780; type: cell-based
Description: The concentrations of the osmium complexes that inhibit 50% of the proliferation of human ovarian A2780 cancer cells were determined by sulforhodamine B test. A2780 cells were seeded in 96-well plate (Falcon) at 5000 cells/well, after the incubation for 48 h, The complexes were solubilised in DMSO (Sigma) to provide 10 mM stocks. The stocks were serially diluted by cell culture media to give concentrations four-fold than the final concentrations for the assay. The dilutions of complexes in cell culture media were added to the 96-well plate with cells in triplicates to achieve the final concentrations. The final DMSO concentration in each well was no more than 1% (v/v). The complexes were removed after 24 h. The cells were washed with Phosphate Buffered Saline once and cell culture media was added 150 μL/well. The cells were recovered for 72 h. The surviving cells were fixed by adding 150 μL/well of 50% (w/v) trichloroacetic acid and incubated for 1 h at 277 K (277 K). The plates were washed with tap water three times and dried under a flow of warm air, 0.4% sulforhodamine B (Sigma) solution 100 μL/well followed by washing with 1% acetic acid five times and dried under a flow of warm air. The dye was dissolved in 10 mM Tris buffer […] The absorbance of each well was obtained by the Multiskan Ascent plate reader (Labsystems) at 540 nm. The absorbance value of SRB in each well is directly proportional to the cell number. Then the absorbance can be plotted against concentration and the IC50 determined by using Origin software.
The cytotoxicity studies were carried out as described previously above.

[5] = tested on: A549 non-small cell lung; assay: MTT growth inhibition assay, A549; type: cell-based, human; details: 96 h
Description: as §1, §2

[6] = tested on: MCF-7 breast; assay: MTT growth inhibition assay, MCF-7; type: cell-based, human; details: 96 h
Description: as §1, §2

[7] = tested on: HCT-116 colon adenocarcinoma s.c. xenograft model; assay: In vivo efficacy in HCT-116 s.c. xenograft model; details: 8.0 mg kg^−1
[8] = tested on: PC-3 prostate; assay: MTT growth inhibition assay, PC-3; type: cell-based, human; details: 96 h
Description: as §1, §2

[9] = tested on: RT-112 bladder; assay: MTT growth inhibition assay, RT-112; type: cell-based, human; details: for IC50: MTT, 96 h
Description: as §1, §2

[10] = cited from earlier work
[11] = tested on: human A549 lung cancer cells; details: cited from earlier work; for activity towards human A549 lung cancer cells: up to concentrations of 100 μM
[12] = tested on: Balb/c immunodeficient nude mice bearing HCT-116 tumours; assay: Evaluation of in vivo toxicity in nude mouse HCT-116 xenograft model; details: i.v. day 0, doses from 2 up to 40 mg kg^−1, monitored 15 days
Description: Female Balb/c immunodeficient nude mice (Harlan, Loughborough, UK) aged 6-12 weeks were used. Mice received Harlan 2018 diet (Harlan) and water ad libitum. Mice were kept in cages in an air-conditioned room with regular alternating cycles of light and darkness. All animal procedures were carried out under a project license issued by the UK Home Office and UKCCCR guidelines (Workman P, Twentyman P, Balkwill F et al: United Kingdom Co-ordinating Committee on Cancer Research (UKCCCR) Guidelines for the Welfare of Animals in Experimental Neoplasia (Second Edition). Br J Cancer 77: 1-10, 1998) were followed throughout.
HCT-116 was used in the study. Tumours were excised from a donor animal, placed in sterile physiological saline containing antibiotics and cut into small fragments of approximately 2 mm^3. Under brief general inhalation anaesthesia, fragments were implanted in the […] abdominal flank of each mouse using a trocar. Once the tumours could accurately be measured using callipers (mean tumour volume of approximately 50 mm^3), treatment commenced. Complexes 3 and 6 were solubilised in 10% DMSO; 5% Tween-80; 85% saline and were administered intravenously to groups of 2 mice on day 0. Animals were weighed frequently and monitored for any deleterious effects over a period of 15 days.

[13] = pKa of hydroxyl group; type: physicochemical
[14] = Stability and hydrolysis (1H NMR, MS, UV-vis); type: physicochemical; details: 310 K, 24 h, 95% deuterated phosphate buffer (10 mM)/5% MeOD-d4
[15] = tested on: A2780 cells; assay: N-acetyl-L-cysteine (NAC) treatment, cell viability by SRB; type: cell-based, human; details: pretreated with 5 mM NAC for 2 h; 1.2-1.8× IC50 (2.5× for cisplatin)
Description: Then NAC and osmium complexes were removed at the same time and washed with PBS once, the cells were incubate for 72 h for recovery. The cell viability was tested by SRB test same as used for IC50 test.

[16] = tested on: tubulin; assay: Tubulin polymerization assay; type: biochemical; details: 37° C., 60 min; for Inhibition of Tubulin Polimerziation: Osmium Compounds at 10 μM
Description: To follow the anticancer mechanism indicated by COMPARE, We have investigated whether osmium complexes can interacted directly with tubulin.
A Cytoskeleton tubulin polymerization assay kit (catalog no BK004) was used in the tubulin polymerization study. Briefly, 10 μL of general tubulin buffer (80 mM PIPES, pH 6.9, 2 mM MgCl2, and 0.5 mM EGTA) containing osmium compound, colchicine or taxol was pipetted into the prewarmed 96 well microplate. Tubulin (defrosted to room temperature from −80° C. and then placed on ice before use) was diluted with tubulin polymerization buffer with 1 mM GTP to a final concentration of 4 mg mL^−1. Diluted tubulin (100 μL) was added into the wells containing osmium compound, colchicine or taxol. Diluted tubulin (100 μL) mixed with general tubulin buffer (10 μL) served as control. The absorbance at 340 nm was read immediately with a Tecan microplate reader.

[17] = SRB, 24 h exposure, 72 h recovery, read-out: IC50 values for azopyridine complexes against A2780 ovarian cancer cells
[18] = SRB, 24 h exposure, 72 h recovery, read-out: IC50 values for iminopyridine complexes against A2780 ovarian cancer cells
[19] = A2780 human ovarian cancer cells, read-out: IC50 values against A2780
[20] = SRB, 24 h exposure, 72 h recovery, read-out: IC50 to A2780 cell line

N.N.[Cl][Pt][Cl] [Cisplatin, reference compound]
GI50 [1]: 10.3 µM
TGI [1]: 50.7 µM
IC50 [2]: 4 µM
IC50 [3]: 2.6 µM
IC50 [4, 17]: 2 µM
IC50 [4, 18]: 2 µM
IC50 [5]: 4.1 µM
IC50 [6]: 3 µM
Maximum % weight loss [7]: 8%
Median tumour doubling time [7]: 6.4 days
day of maximum % weight loss [7]: 6 days
IC50 [8]: 21.5 µM
IC50 [9]: 1.4 µM

F[P-](F)(F)(F)(F)F.[I-].[Os+2].c1ccc(-c2ccccc2)cc1.c1ccc(N=Nc2ccccn2)cc1 [Complex 1, [(η^6-bip)Os(Azpy)I]PF6]
IC50 [4, 17]: 5.4 µM

Cc1ccc(C(C)C)cc1.F[P-](F)(F)(F)(F)F.[I-].[Os+2].c1ccc(N=Nc2ccccn2)cc1 [Complex 2, [(η^6-p-cym)Os(Azpy)I]PF6]
IC50 [4, 17]: 10.2 µM

Cc1ccc(C(C)C)cc1.F[P-](F)(F)(F)(F)F.Oc1ccc(N=Nc2ccccn2)cc1.[I-].[Os+2] [Complex 4, [(η^6-p-cym)Os(Azpy-OH)I]PF6]
IC50 [4, 17]: 0.3 µM

CN(C)c1ccc(N=Nc2ccccn2)cc1.F[P-](F)(F)(F)(F)F.[I-].[Os+2].c1ccc(-c2ccccc2)cc1 [Complex 5, [(η^6-bip)Os(azpy-NMe2)I]PF6]
IC50 [4, 19]: 0.14 µM

CN(C)c1ccc(N=Nc2ccccn2)cc1.F[P-](F)(F)(F)(F)F.[Cl-].[Os+2].c1ccc(-c2ccccc2)cc1 [Complex 11, [(η^6-bip)Os(azpy-NMe2)Cl]PF6]
IC50 [4, 17]: 3.9 µM
solubility (in water / under test conditions), earlier report ([10]; listed as 11): low solubility
solubility (in water / under test conditions), earlier report ([10]; listed as [(η^6-bip)Os(Azpy-NMe2)Cl]PF6): poor solubility in water
cytotoxicity against the A549 cancer cell line [11]: did not show significant cytotoxicity
activity towards human A549 lung cancer cells [11]: No activity

[(η^6-bip)Os(Azpy)Cl]PF6 [Complex 7]
IC50 [4, 17]: 13.9 µM

[(η^6-bip)Os(Azpy-O)I].0.5H2O [3*]
IC50 [2]: < 0.3 µM
IC50 [3]: < 0.3 µM
IC50 [4, 19]: 0.14 µM
IC50 [5]: 0.4 µM
IC50 [6]: 0.25 µM
IC50 [8]: < 0.3 µM
toxicity / deleterious effects [12]: no evident toxicity; also recorded: negligible deleterious effects
pKa of the hydroxyl group [13]: less than 7
IC50 [9]: 0.4 µM
difference in potency to cisplatin, RT-112 ([9]; RT-112): 3 fold

[(η^6-bip)Os(azpy-OH)Cl]PF6 [Complex 9]
IC50 [4, 17]: 0.8 µM

[(η^6-bip)Os(pp)I]PF6 [Complex 14]
IC50 [4, 18]: 18.6 µM

[(η^6-p-cym)Os(Azpy)Cl]PF6 [Complex 8]
IC50 [4, 19]: > 50 µM
IC50 [4, 17]: > 50 µM
stability and hydrolysis in aqueous solution [14]: disappearance of the peaks corresponding to the azopyridine ligand

[(η^6-p-cym)Os(Azpy-NMe2)Cl]PF6 [Complex 12]
IC50 [2]: 1.8 µM
IC50 [3]: 0.9 µM
IC50 [4, 17]: 1.8 µM
stability and hydrolysis in aqueous solution [14]: remained stable and did not hydrolyze
IC50 [5]: 5.2 µM
cell growth restored after NAC pretreatment [15]: only a small effect on restoring growth
IC50 [6]: 1.1 µM
IC50 [8]: 6.8 µM
cytotoxicity against the A549 cancer cell line [11]: did not show significant cytotoxicity
activity towards human A549 lung cancer cells [11]: No activity
IC50 [9]: 2.2 µM

[(η^6-p-cym)Os(Azpy-OH)Cl]PF6 [Complex 10]
IC50 [4, 17]: 1.3 µM

[(η^6-p-cym)Os(pp)Cl]PF6 [Complex 15]
IC50 [4, 18]: 26.2 µM

[(η^6-p-cym)Os(pp-NMe2)Cl]PF6 [Complex 16]
IC50 [4, 18]: 3.5 µM

[(η^6-p-cym)Os(pp-NMe2)I]PF6 [Complex 13]
IC50 [4, 18]: 0.4 µM

[Os(η^6-bip)(1-CF3-4-Cl-Azpy)I]PF6 [FY107]
IC50 [4, 20]: 5.7 µM
Inhibition of Tubulin Polimerziation [16]: 13.0%

[Os(η^6-bip)(1-Cl-azpy)I]PF6 [FY110]
IC50 [4, 20]: 3.7 µM
Inhibition of Tubulin Polimerziation [16]: 11.4%

[Os(η^6-bip)(2-Br-Azpy)I]PF6 [FY061]
IC50 [4, 20]: 0.59 µM

[Os(η^6-bip)(2-Cl-Azpy)I]PF6 [FY078]
IC50 [4, 20]: 1 µM

[Os(η^6-bip)(2-F-Azpy)I]PF6 [FY069]
IC50 [4, 20]: 0.63 µM
Inhibition of Tubulin Polimerziation [16]: 21.0%
IC50 ([16]; purified tubulin): ~20 µM
effect on amount of tubulin polymerized ([16]; purified tubulin): reduced the amount of tubulin polymerized in a dose-dependent manner

[Os(η^6-bip)(2-I-Azpy)I]PF6 [FY070]
IC50 [4, 20]: 0.22 µM

[Os(η^6-bip)(3-Cl-Azpy)I]PF6 [FY052]
IC50 [4, 20]: 22 µM

[Os(η^6-bip)(pp)Cl]PF6 [FY098]
IC50 [4, 20]: 4.6 µM

[Os(η^6-bip)(pp-NMe2)Cl]PF6 [FY093]
IC50 [4, 20]: 0.44 µM

[Os(η^6-bip)(pp-NMe2)I]PF6 [FY012]
IC50 [4, 20]: 0.14 µM

[Os(η^6-bip)(pp-OH)Cl]PF6 [FY150]
IC50 [4, 20]: 2.4 µM

[Os(η^6-p-cym)(1-Cl-Azpy)I]PF6 [FY112]
IC50 [4, 20]: 9 µM

[Os(η^6-p-cym)(2-I-Azpy)I]PF6 [FY067]
IC50 [4, 20]: 2.4 µM

[Os(η^6-p-cym)(OH-Azpy-NO2)Cl]PF6 [FY033]
IC50 [4, 20]: 0.3 µM

[Os(η^6-p-cym)(OH-Azpy-NO2)I]PF6 [FY036]
IC50 [4, 20]: 0.29 µM

[Os(η^6-p-cym)(abpy))I]PF6 [FY043]
IC50 [4, 20]: 10.8 µM

[Os(η^6-p-cym)(pp-OH)Cl]PF6 [FY119]
IC50 [4, 20]: 5.5 µM

Source: patent publication US9598448B2, “Osmium (II) arene imino anti-cancer complexes” (University of Warwick, priority 2010, dated 2017)
